Measured values from publication PMC8961646, “Fibroblast Activation Protein Specific Optical Imaging in Non-Small Cell Lung Cancer” (Frontiers in Oncology, 2022).
Non-standard residues stand in square brackets, D forms with d. Residues, ends and D or L forms follow the SMILES beside them. *: point of attachment. 5FAM = O=C1OC2(c3ccc(O)cc3Oc3cc(O)ccc32)c2ccc(C(=O)*)cc21; MethylRed = CN(C)c1ccc(/N=N/c2ccccc2C(=O)*)cc1; AEEA = NCCOCCOCC(=O)O; βAla = NCCC(=O)O

How the values were obtained:
rhFAP = target: T1, rhFAP (Homo sapiens, UniProt Q12884); assay: Probe cleavage by recombinant human FAP (fluorescence plate assay, MALDI confirmation); type: biochemical; conditions: probe 5 µM; for Cleavage by rhFAP (fluorescence signal): rhFAP 0.1 µg/ml, TRIS buffer (pH 7.5), 20 µl, read 480/530 nm, n=3 run in triplicate; for FAP specificity (over PREP): rhFAP compared with rhPREP, each 0.1 µg/ml
T1 construct: purchased R&D Systems
T1 sequence (Q12884 26-760 limits assumed): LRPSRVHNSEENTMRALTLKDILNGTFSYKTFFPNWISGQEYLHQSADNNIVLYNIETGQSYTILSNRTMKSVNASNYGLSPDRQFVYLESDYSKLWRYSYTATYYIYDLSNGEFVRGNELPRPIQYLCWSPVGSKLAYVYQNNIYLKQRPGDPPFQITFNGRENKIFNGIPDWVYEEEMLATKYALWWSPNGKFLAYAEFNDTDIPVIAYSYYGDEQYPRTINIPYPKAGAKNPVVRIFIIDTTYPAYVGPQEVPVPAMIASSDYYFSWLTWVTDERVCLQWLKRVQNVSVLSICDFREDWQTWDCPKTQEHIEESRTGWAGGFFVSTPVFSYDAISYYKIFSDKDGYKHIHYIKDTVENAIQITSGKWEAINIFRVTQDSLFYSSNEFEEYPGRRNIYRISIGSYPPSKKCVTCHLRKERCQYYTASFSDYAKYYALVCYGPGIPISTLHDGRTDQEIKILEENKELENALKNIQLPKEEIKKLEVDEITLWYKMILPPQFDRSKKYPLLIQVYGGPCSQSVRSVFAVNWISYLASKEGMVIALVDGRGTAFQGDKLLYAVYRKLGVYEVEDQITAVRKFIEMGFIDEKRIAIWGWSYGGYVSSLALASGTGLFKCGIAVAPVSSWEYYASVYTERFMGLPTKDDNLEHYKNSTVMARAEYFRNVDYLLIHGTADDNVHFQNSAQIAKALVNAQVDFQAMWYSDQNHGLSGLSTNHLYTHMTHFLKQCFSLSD

rhPREP = target: T2, rhPREP (Homo sapiens, UniProt P48147); assay: Probe cleavage by recombinant human PREP (fluorescence plate assay, MALDI confirmation); type: biochemical; conditions: probe 5 µM, rhPREP 0.1 µg/ml, TRIS buffer pH 7.5, read 480/530 nm, n=3 run in triplicate
T2 construct: purchased R&D Systems
T2 sequence (P48147 1-710): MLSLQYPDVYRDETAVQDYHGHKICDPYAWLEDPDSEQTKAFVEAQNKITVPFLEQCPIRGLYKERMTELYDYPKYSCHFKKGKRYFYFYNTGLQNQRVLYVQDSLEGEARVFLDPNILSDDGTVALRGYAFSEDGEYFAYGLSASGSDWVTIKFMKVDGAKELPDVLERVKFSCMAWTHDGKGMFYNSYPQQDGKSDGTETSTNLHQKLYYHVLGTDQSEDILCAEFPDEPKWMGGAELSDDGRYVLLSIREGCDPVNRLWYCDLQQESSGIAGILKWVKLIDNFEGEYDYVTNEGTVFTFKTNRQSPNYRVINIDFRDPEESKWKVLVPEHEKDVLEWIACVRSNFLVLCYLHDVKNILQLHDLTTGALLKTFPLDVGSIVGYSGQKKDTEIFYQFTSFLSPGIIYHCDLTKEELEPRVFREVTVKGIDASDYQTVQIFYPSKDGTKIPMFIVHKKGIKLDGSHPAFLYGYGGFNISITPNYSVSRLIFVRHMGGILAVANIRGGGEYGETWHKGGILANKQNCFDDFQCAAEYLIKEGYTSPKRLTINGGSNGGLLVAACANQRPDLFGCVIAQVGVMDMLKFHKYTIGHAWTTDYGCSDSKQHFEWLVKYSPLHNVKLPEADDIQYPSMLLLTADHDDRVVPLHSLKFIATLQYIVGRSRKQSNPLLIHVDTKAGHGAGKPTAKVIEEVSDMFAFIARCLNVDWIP

rhDPPIV = rhDPPIV (Homo sapiens, UniProt P27487); assay: Probe cleavage by recombinant human DPP-IV (exopeptidase activity); conditions: probe 5 µM, rhDPPIV 0.1 µg/ml, TRIS buffer pH 7.5, read 480/530 nm, n=3 run in triplicate
rhDPPIV, sequence (P27487 29-766 limits assumed): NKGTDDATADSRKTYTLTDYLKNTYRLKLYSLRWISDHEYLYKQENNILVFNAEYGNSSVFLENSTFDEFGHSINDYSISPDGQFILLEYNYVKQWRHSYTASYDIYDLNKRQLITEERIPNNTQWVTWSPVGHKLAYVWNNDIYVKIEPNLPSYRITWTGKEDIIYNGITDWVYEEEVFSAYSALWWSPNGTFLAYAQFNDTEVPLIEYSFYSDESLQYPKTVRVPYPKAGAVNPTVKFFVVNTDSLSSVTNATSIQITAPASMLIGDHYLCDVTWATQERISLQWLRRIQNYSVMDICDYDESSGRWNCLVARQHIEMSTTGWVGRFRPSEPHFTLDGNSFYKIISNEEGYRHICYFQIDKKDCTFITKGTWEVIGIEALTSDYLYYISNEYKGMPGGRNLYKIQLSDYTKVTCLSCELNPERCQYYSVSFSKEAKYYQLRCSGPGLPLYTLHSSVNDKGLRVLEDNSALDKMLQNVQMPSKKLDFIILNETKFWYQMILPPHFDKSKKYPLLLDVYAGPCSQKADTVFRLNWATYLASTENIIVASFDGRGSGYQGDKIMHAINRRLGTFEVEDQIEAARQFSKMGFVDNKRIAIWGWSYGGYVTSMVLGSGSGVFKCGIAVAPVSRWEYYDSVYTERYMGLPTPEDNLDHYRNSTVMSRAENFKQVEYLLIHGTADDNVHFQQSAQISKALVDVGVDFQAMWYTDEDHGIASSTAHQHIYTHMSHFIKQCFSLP
Description: Recombinant human enzymes [rhFAP (R&D Systems), rhPREP (R&D Systems) and rhDPPIV (Biolegend)] were stored in stocks at -70°C and diluted as required to be used at final concentration of 0.1 µg/ml. Enzymes were aliquoted upon receipt from the supplier and new stocks made from a fresh aliquot as required.
Assays were undertaken in triplicate in blackened 384 well plates on ice prior to spectral reads. […] All wells contained a final volume of 20 µl to include buffers, inhibitors (if used), substrates and recombinant human enzymes (at a concentration of 0.1 µg/ml unless otherwise stated). […] Plates were sealed with an optical plate sealer (Biolegend) and were read in a preheated spectrophotometer (Synergy Biotek) in monochromator-based mode at 380/460 nm for control substrates and 480/530 nm for synthesised FAP probes.

[1] = system: NSCLC patient tissue samples; assay: Fluorescence intensity and lifetime imaging (FLIM) of ex vivo NSCLC tissue; design: species or system human; conditions: Talabostat at a dilution of 1:1000 with FAP3 5 µM, N=5
Description: For imaging solutions, varying concentrations of rhFAP were prepared in blackened eppendorfs and FAP3 to a final concentration of 5µM added and imaged as below. For biological specimens, NSCLC patient tissue samples from surgical resection were used fresh or snap frozen and stored at -80°C until required. Small fragments (approx. 4mm^3) incubated at 37°C in a 96 well plate in phenyl-red free DMEM (Gibco) containing 10% FCS, 1% Penicillin-streptomycin and 1% L-Glutamine. For the tissue fragments to be used as inhibitor controls, we added Talabostat at a dilution of 1:1000. Samples were then imaged using a clinically approved fluorescence lifetime imaging system used in conjunction with an imaging fibre ([30]) providing a 400 x 400 µm field of view. The imaging system incorporates a pulsed supercontinuum laser source, in this case tuned for excitation at 488 nm, with an achromatic confocal laser scanning system and a time-resolved spectrometer. This spectrometer contains a 512 channel single photon avalanche diode (SPAD) sensor ([31]) allowing for the rapid collection of time resolved spectral fluorescence lifetime data. Fluorescence intensity and lifetime images were collected using an image resolution of 160 x 160 pixels over a 498 – 570 nm spectral range with an exposure time of 13 µs per pixel. This led to an imaging rate of ~3 frames per second.
For each condition, the tumour samples were imaged using a fibre placed at the surface of the tissue (baseline), and then again at 10-minute intervals following the additions of equimolar concentrations of probe +/- Inhibitor. For imaging solutions, the fibre was held within the solution and imaged every 5 minutes. Each condition and time-point data for both fluorescence intensity and lifetime were collected. Imaging sequences had non-relevant frames removed, and the entire field of view was analysed. Analysis was undertaken using a bespoke software suite utilising the rapid lifetime determination (RLD) method ([32]). […]

DPP-IV = conditions: cited from earlier work
Source text: As starting point for our study, a peptide sequence previously published within a FAP optical reporter was synthesised (GPGPNQ), which had been determined to be FAP specific over DPP-IV but had not been assessed against PREP ([24]). We synthesised the reported peptide sequence but for FRET pairing we utilised a Carboxyfluorescein (FAM) fluorophore with a Methyl Red quencher ( Figure 1A ) as an alternative to Cy5.5/QSY21. The peptide sequence was synthesized by Fmoc solid-phase peptide synthesis on ChemMatrix resin using Oxyma/DIC as the coupling combination. FAM was incorporated at the N-termi ...

| Structure (SMILES) | Cleavage by rhFAP (fluorescence signal) (rhFAP) | Cleavage by rhPREP (fluorescence signal) (rhPREP) | FAP specificity (over PREP) (rhFAP) | further results |
| --- | --- | --- | --- | --- |
| C[C@H](NC(=O)[C@@H](N)CCCCNC(=O)c1ccccc1/N=N/c1ccc(N(C)C)cc1)C(=O)N1CCC[C@H]1C(=O)N[C@@H](CO)C(=O)N[C@@H](CCCCNC(=O)c1ccc2c(c1)C(=O)OC21c2ccc(O)cc2Oc2cc(O)ccc21)C(=O)NCCOCCOCC(=O)N[C@H](CCCCN)C(=O)NCCOCCOCC(=O)N[C@H](CCCCN)C(=O)NCCOCCOCC(=O)N[C@H](CCCCN)C(N)=O [FAP2AAla] (H-K(MethylRed)APSK(5FAM)[AEEA][dK][AEEA][dK][AEEA][dK]-NH2) | FAP activity was absent | demonstrated cleavage by PREP | – | – |
| C[C@@H](NC(=O)[C@@H](N)CCCCNC(=O)c1ccccc1/N=N/c1ccc(N(C)C)cc1)C(=O)N1CCC[C@H]1C(=O)N[C@@H](CO)C(=O)N[C@@H](CCCCNC(=O)c1ccc2c(c1)C(=O)OC21c2ccc(O)cc2Oc2cc(O)ccc21)C(=O)NCCOCCOCC(=O)N[C@H](CCCCN)C(=O)NCCOCCOCC(=O)N[C@H](CCCCN)C(=O)NCCOCCOCC(=O)N[C@H](CCCCN)C(N)=O [FAP2BD-Ala] (H-K(MethylRed)[dA]PSK(5FAM)[AEEA][dK][AEEA][dK][AEEA][dK]-NH2) | reduced signal | – | FAP specificity over PREP | – |
| CN(C)c1ccc(/N=N/c2ccccc2C(=O)NCCCC[C@H](N)C(=O)N[C@H](CO)C(=O)N2CCC[C@H]2C(=O)N[C@@H](CO)C(=O)N[C@@H](CCCCNC(=O)c2ccc3c(c2)C(=O)OC32c3ccc(O)cc3Oc3cc(O)ccc32)C(=O)NCCOCCOCC(=O)N[C@H](CCCCN)C(=O)NCCOCCOCC(=O)N[C@H](CCCCN)C(=O)NCCOCCOCC(=O)N[C@H](CCCCN)C(N)=O)cc1 [FAP2CD-Ser] (H-K(MethylRed)[dS]PSK(5FAM)[AEEA][dK][AEEA][dK][AEEA][dK]-NH2) | highest rate of cleavage | without PREP cleavage | FAP specificity over PREP | Cleavage by rhFAP (fluorescence signal) (rhFAP; listed as D-Ser): reduced signal |
| C[C@H](O)[C@@H](NC(=O)[C@@H](N)CCCCNC(=O)c1ccccc1/N=N/c1ccc(N(C)C)cc1)C(=O)N1CCC[C@H]1C(=O)N[C@@H](CO)C(=O)N[C@@H](CCCCNC(=O)c1ccc2c(c1)C(=O)OC21c2ccc(O)cc2Oc2cc(O)ccc21)C(=O)NCCOCCOCC(=O)N[C@H](CCCCN)C(=O)NCCOCCOCC(=O)N[C@H](CCCCN)C(=O)NCCOCCOCC(=O)N[C@H](CCCCN)C(N)=O [FAP2DD-Thr] (H-K(MethylRed)[dT]PSK(5FAM)[AEEA][dK][AEEA][dK][AEEA][dK]-NH2) | reduced signal | – | FAP specificity over PREP | – |
| CC(C)[C@H](N)C(=O)N1CCC[C@H]1B(O)O [Talabostat, Val-boroPro, reference compound] | – | – | – | Inhibition of FAP3 intensity and lifetime change in NSCLC tissue [1]: abrogated; IC50 (DPP-IV): 4 nM |

More lines, main results first:

| Cleavage by rhFAP (fluorescence signal) (rhFAP) | Cleavage by rhPREP (fluorescence signal) (rhPREP) | FAP specificity (over PREP) (rhFAP) | Structure (SMILES) | further results |
| --- | --- | --- | --- | --- |
| loss of FAP activity | – | – | CN(C)c1ccc(/N=N/c2ccccc2C(=O)NCCCC[C@H](N)C(=O)N[C@H](Cc2ccc(O)cc2)C(=O)N2CCC[C@H]2C(=O)N[C@@H](CO)C(=O)N[C@@H](CCCCNC(=O)c2ccc3c(c2)C(=O)OC32c3ccc(O)cc3Oc3cc(O)ccc32)C(=O)NCCOCCOCC(=O)N[C@H](CCCCN)C(=O)NCCOCCOCC(=O)N[C@H](CCCCN)C(=O)NCCOCCOCC(=O)N[C@H](CCCCN)C(N)=O)cc1 [FAP2ED-Tyr] (H-K(MethylRed)[dY]PSK(5FAM)[AEEA][dK][AEEA][dK][AEEA][dK]-NH2) | – |
| reduced signal | – | FAP specificity over PREP | CN(C)c1ccc(/N=N/c2ccccc2C(=O)NCCCC[C@H](N)C(=O)NCCC(=O)N2CCC[C@H]2C(=O)N[C@@H](CO)C(=O)N[C@@H](CCCCNC(=O)c2ccc3c(c2)C(=O)OC32c3ccc(O)cc3Oc3cc(O)ccc32)C(=O)NCCOCCOCC(=O)N[C@H](CCCCN)C(=O)NCCOCCOCC(=O)N[C@H](CCCCN)C(=O)NCCOCCOCC(=O)N[C@H](CCCCN)C(N)=O)cc1 [FAP2Fβ-Ala] (H-K(MethylRed)[βAla]PSK(5FAM)[AEEA][dK][AEEA][dK][AEEA][dK]-NH2) | – |
| – | no rhPREP cleavage | demonstrated FAP specificity | CC(C)[C@H](NC(=O)[C@@H](N)CCCCNC(=O)c1ccccc1/N=N/c1ccc(N(C)C)cc1)C(=O)N[C@H](CO)C(=O)N1CCC[C@H]1C(=O)N[C@@H](CO)C(=O)N[C@@H](CCC(N)=O)C(=O)NCC(=O)N[C@@H](CCCCNC(=O)c1ccc2c(c1)C(=O)OC21c2ccc(O)cc2Oc2cc(O)ccc21)C(=O)NCCOCCOCC(=O)N[C@H](CCCCN)C(=O)NCCOCCOCC(=O)N[C@H](CCCCN)C(=O)NCCOCCOCC(=O)N[C@H](CCCCN)C(N)=O [FAP-sP, reference compound] (H-K(MethylRed)V[dS]PSQGK(5FAM)[AEEA][dK][AEEA][dK][AEEA][dK]-NH2) | Cleavage by DPP-IV (exopeptidase activity, fluorescence signal) (rhDPPIV): no cleavage |
